Experimental data from patent publication US20060019907A1, “Guggulsterone: an inhibitor of nuclear factor - kappaB and IkappaBalpha kinase activation and uses thereof” (Research Development Foundation, priority 2004, published 2006).

Tests used:
[1] = humans; cited from earlier work
Akt = test: TNF-induced Akt activation, Western blot with phospho-specific anti-Akt; assay type: cell-based; details: pretreatment with guggulsterone, TNF (1 nM)
Description: Guggulsterone Suppressed TNF-induced Activation of Akt: The results till now indicate that guggulsterone inhibits TNF-induced NF-κB activation through inhibition of IKK activation. It is possible that this inhibition is due to inhibition of an upstream kinase. Previous studies have reported that Akt can activate IKK. Thus it is possible that guggulsterone suppresses TNF-induced Akt activation. To determine the effect of guggulsterone on the activation of Akt induced by TNF, the cells were treated with guggulsterone, and then exposed to TNF (1 nM) for different times. Thereafter whole-cell extracts were prepared and Western blot analysis using phospho-specific anti-Akt antibody was performed.

IKK = test: TNF-induced IKK activation, immune complex kinase assay; assay type: cell-based, human; details: H1299
Procedure: IKK Assay: To determine the effect of guggulsterone on TNF-induced IKK activation, IKK was analyzed by a method essentially as described previously (Shishodia et al., 2003). Briefly, IKK complex was precipitated from whole-cell extracts with antibody to IKKα and IKKβ, assayed in kinase assay using GST-IκBα (1-54) as a substrate, and resolved on 10% polyacrylamide gel; the radioactive bands were visualized using a PHOSPHORIMAGER™. To determine the total amounts of IKKα and IKKβ in each sample, 30 μg of the whole-cell extract protein was resolved on a 7.5% polyacrylamide gel and analyzed by Western blot using antibody against IKKα and IKKβ.

STAT3 [2] = test: IL-6-inducible STAT3 phosphorylation in RPMI 8226 cells, Western blot; assay type: cell-based, human
Procedure: (§1) Western blot. For detection of STAT proteins, whole-cell extracts were prepared by lysing the guggulsterone-treated cells in lysis buffer (20 mM Tris, pH 7.4, 250 mM NaCl, 2 mM EDTA, pH 8.0, 0.1% Triton −X100, 0.01 mg/ml aprotinin, 0.005 mg/ml leupeptin, 0.4 mM PMSF, and 4 mM NaVO4). Lysates were then spun at 14,000 rpm for 10 min to remove insoluble material, and resolved on a 7.5% gel. After electrophoresis, the proteins were electrotransferred to a nitrocellulose membrane, blocked with 5% nonfat milk, and probed with anti-STAT antibodies (1:1000) overnight at 4° C. The blot was washed, exposed to HRP-conjugated secondary antibodies for 1 h, and finally examined by chemiluminescence (ECL, Amersham Pharmacia Biotech. Arlington Heights, Ill.).

KBM-5 cells = test: Live and Dead (calcein AM) assay, TNF plus guggulsterone; assay type: cell-based, human; details: TNF in combination with guggulsterone, 24 hours
Description: Live and Dead Assay: To measure apoptosis, the Live and Dead assay (Molecular Probes) was used, which determines intracellular esterase activity and plasma membrane integrity. This assay employs calcein, a polyanionic dye, which is retained within the live cells and provides green fluorescence. It also employs the ethidium […] dye (red fluorescence), which can enter the cells only through damaged membranes and bind to nucleic acids but is excluded by the intact plasma membrane of live cells. Briefly, 1×10^5 cells are incubated with 10 μM guggulsterone for 24 h and then treated with 1 nM TNF for 16 hours at 37° C. Cells are stained with the Live and Dead reagent (5 μM ethidium homodimer, 5 μM calcein-AM) and then incubated at 37° C. for 30 min. Cells were analyzed under a fluorescence microscope (Labophot-2).

STAT3 [3] = test: Constitutive STAT3 phosphorylation in U266 cells, Western blot; assay type: cell-based, human
Procedure: as §1

NF-κB = test: NF-κB-dependent reporter gene (SEAP) transcription; assay type: cell-based, human
Procedure: NF-κB-dependent Reporter Gene Transcription: The effect of guggulsterone on TNF-induced NF-κB dependent reporter gene transcription was measured as previously described (Manna et al., 2000). Briefly, H1299 cells (5×10^5 cells/well) were plated in six-well plates and transiently transfected the next day by LIPOFECTAMINETM 2000 method with pNF-κB-SEAP using the manufacturer's protocol. To examine TNF-induced reporter gene expression, cells was transfected with 2 μg of the SEAP expression plasmid. After 18 hours, medium was removed, cells were rinsed and treated with various doses of guggulsterone for 4 hours and then treated with TNF. Twenty four hours later, the cell culture medium was harvested and analyzed for alkaline phosphatase (SEAP) activity essentially according to the protocol described by the manufacturer (Clontech, Palo Alto, Calif.) using a 96-well fluorescence plate reader ([…]; Labsystems, Chicago, Ill.) with excitation set at 360 nm and emission set at 460 nm.

[4] = system: caspase 8, cytochrome c, caspase 3, PARP; test: Caspase activation, cytochrome c release and PARP cleavage, Western blot; assay type: cell-based, human; details: U937; 10 μM
Procedure: Western blot analysis. Thirty to fifty micrograms of cytoplasmic, nuclear or whole cell protein was resolved on 10% SDS-PAGE gel, transferred to a nitrocellulose membrane, blocked with 5% non-fat milk, and probed with specific antibodies as per manufacturer's recommended protocol. The blots were washed, exposed to HRP-conjugated secondary antibodies for 1 h, and detected by ECL reagent (Amersham Pharmacia Biotechnology, Piscataway, N.J.). The bands were quantitated using a Personal Densitometer Scan v1.30 using Imagequant software version 3.3 (Molecular Dynamics).
Measurement of cytochrome c release. To determine the effect of guggulsterone on cytochrome c release, cells were treated with guggulsterone as indicated and then the cytosolic extracts were prepared as described (Yang, 1997). Briefly, the cells were washed with PBS, resuspended in the buffer containing 0.25 M sucrose, 30 mM Tris-HCl (pH 7.9), 1 mM EDTA, 1 mM PMSF, 2 mM sodium orthovanadate, 10 mM NaF, 2 μg/ml leupeptin, and 2 μg/ml aprotinin and then homogenized gently with a glass Dounce homogenizer for 20 strokes. The homogenates were centrifuged at 2000 rpm for 10 min to remove nuclei, and the supernatants were centrifuged at 14,000 rpm for 30 min to remove mitochondria and other insoluble fragments. The supernatants were again centrifuged as above to ensure complete removal of mitochondria. Protein ([…]) was subjected to 15% SDS-PAGE, and then Western blot analysis was performed using anti-cytochrome c antibody.
PARP cleavage assay. For detection of cleavage products of PARP, whole-cell extracts were prepared by subjecting guggulsterone-treated cells to lysis in lysis buffer (20 mM Tris, pH 7.4; 250 mM NaCl; 2 mM EDTA, pH 8.0; 0.1% Triton-X 100; 0.01 μg/ml aprotinin; 0.005 μg/ml leupeptin; 0.4 mM PMSF; and 4 mM NaVO4). Lysates were spun at 14000 rpm for 10 min to remove insoluble material, resolved by 10% SDS PAGE, and probed with PARP antibodies.

SMILES: CC=C1C(=O)C[C@H]2[C@@H]3CCC4=CC(=O)CC[C@]4(C)[C@H]3CC[C@]12C [guggulsterone, 4,17(20)-pregnadiene-3,16-dione]
- pharmacological safety [1]: pharmacologically safe agent in humans
- TNF-induced Akt activation (Akt): completely suppressed the activation
- TNF-induced IKK activation (IKK; 50 μM, 4 h, 0.1 nM TNF): completely suppressed this activation
- expression of IKKα and IKKβ proteins (IKK; whole cell extracts, immunoblot): had no direct effect on the expression of either IKKα
- exposure time sufficient to completely suppress IL-6-induced STAT3 phosphorylation (STAT3 [2]; 25 μM): 4 h
- IL-6-induced STAT3 phosphorylation (STAT3 [2]; 25 μM, IL-6 10 ng/ml 10 min): blocked by guggulsterone in a time-dependent manner
- STAT3 phosphorylation by guggulsterone alone (STAT3 [2]; data not shown): had no effect on STAT3 phosphorylation
- TNF-induced apoptosis, calcein AM-based live/dead assay (KBM-5 cells): TNF-induced apoptosis was significantly enhanced
- overall expression of STAT3 protein (STAT3 [3]): did not alter the overall expression of STAT3 protein
- earliest time at which inhibition of constitutive STAT3 phosphorylation is observed (STAT3 [3]; 25 μM): 4 h
- lowest concentration at which inhibition of constitutive STAT3 phosphorylation is observed (STAT3 [3]; 4 h): 25 µM
- constitutively active (phosphorylated) STAT3 (STAT3 [3]; time- and dose-dependent): inhibited the constitutively active STAT3
- NF-κB-dependent SEAP expression induced by TNFR, TRADD, NIK and IKKβ plasmids (NF-κB; H1299, 50 μM, 4 hours): suppressed reporter gene expression induced by TNFR, TRADD, NIK and IKKβ plasmids
- NF-κB-dependent SEAP expression induced by p65 plasmid (NF-κB; H1299, 50 μM, 4 hours): had no effect on that induced by p65
- TNF-induced NF-κB-dependent SEAP expression (NF-κB; H1299 cells, 0.1 nM TNF 24 hours): inhibited by guggulsterone in a dose-dependent manner
- caspase 3 activation and PARP cleavage [4]: activation of caspase 3 and PARP cleavage
- caspase 8 activation (receptor-mediated apoptosis) [4]: activation of caspase 8
- mitochondrial cytochrome c release (non-receptor mediated apoptosis) [4]: mitochondrial cytochrome c release
